Measurements taken from patent publication US12715781B2, “Water treatment and purification method” (priority 2019, dated 2026).

Experiments:
[1] = test system: E. coli; assay: Agar well diffusion, zone of inhibition; assay type: cell-based; conditions: 8 mm wells, nanoparticles 100 μL (50 μg) per well, tetracycline 15 μg/wells, 24 hr at 37° C.
Experimental: (§1) For bacterial growth, a lawn of culture was prepared by spreading the […] of each test organism on nutrient agar plates. Plates were left standing for 10 minutes to let the culture get absorbed. Then 8 mm wells were punched into the nutrient agar plates for testing nanomaterial antimicrobial activity. Using a micropipette, 100 μL (50 μg) of the sample of nanoparticle suspension was poured onto each of five wells on all plates. After 24 hr incubation at 37° C.±2° C., the diameter of inhibition zone was measured.

[2] = test system: S. aureus ATCC 25923; assay: Agar well diffusion, zone of inhibition; assay type: cell-based, Staphylococcus aureus; conditions: 8 mm wells, nanoparticles 100 μL (50 μg) per well, tetracycline 15 μg/wells, 24 hr at 37° C.
Experimental: as §1

In the case of `CN(C)[C@@H]1C(O)=C(C(N)=O)C(=O)[C@@]2(O)C(O)=C3C(=O)c4c(O)cccc4[C@@](C)(O)[C@H]3C[C@@H]12` [Tetracycline, tetracycline], the Inhibitions zones diameters [1] is reported as 20 ± 0.2 mm and the Inhibitions zones diameters [2] is reported as 18 ± 0.2 mm.
